{"source": "patent US20060116400A1", "about": "“Oxazolidinone and/or isoxazoline derivatives as antibacterial agents” (AstraZeneca AB, priority 2002, published 2006)", "key": {"MAO-A": {"biological_target": "T1, MAO-A (Homo sapiens, UniProt P21397)", "T1 sequence (P21397 1-527)": "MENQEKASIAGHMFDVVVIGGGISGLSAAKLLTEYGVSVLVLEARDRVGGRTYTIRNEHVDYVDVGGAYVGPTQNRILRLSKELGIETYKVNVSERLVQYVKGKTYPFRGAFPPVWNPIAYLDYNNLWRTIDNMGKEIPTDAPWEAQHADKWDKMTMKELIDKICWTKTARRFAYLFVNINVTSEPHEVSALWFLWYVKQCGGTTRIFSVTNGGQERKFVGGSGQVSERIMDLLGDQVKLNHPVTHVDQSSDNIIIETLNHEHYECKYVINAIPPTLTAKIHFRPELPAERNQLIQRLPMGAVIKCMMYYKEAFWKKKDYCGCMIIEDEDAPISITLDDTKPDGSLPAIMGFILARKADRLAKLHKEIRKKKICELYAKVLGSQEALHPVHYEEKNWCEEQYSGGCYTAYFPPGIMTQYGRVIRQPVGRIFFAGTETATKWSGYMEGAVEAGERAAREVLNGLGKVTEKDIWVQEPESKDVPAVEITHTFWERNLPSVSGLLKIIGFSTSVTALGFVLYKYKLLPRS", "experiment": "MAO-A inhibition (Ki)", "assay_type": "biochemical", "conditions": "* = approximate values"}}, "data": [{"molecule": "O=C1O[C@@H](Cn2ccnn2)CN1c1ccc(-c2ccc(C3=NOC(C(O)c4ccccc4)C3)nc2)c(F)c1", "note": "(single isomer, unassigned) [Example 26]", "values": [{"measurement": "melting point", "value": 182, "unit": "°C"}]}, {"molecule": "CC(C)C(OC(=O)Cc1ccc2ccccc2c1)C1CC(c2ccc(-c3ccc(N4C[C@H](Cn5ccnn5)OC4=O)cc3F)cn2)=NO1", "note": "(single isomer, unassigned) [Example 30]", "values": [{"measurement": "melting point", "value": 85, "unit": "°C"}]}, {"molecule": "CC(C)C(O)C1CC(c2ccc(-c3ccc(N4C[C@H](Cn5ccnn5)OC4=O)cc3F)cn2)=NO1", "note": "(single isomer, unassigned) [Example 32]", "values": [{"measurement": "melting point", "value": 155, "unit": "°C"}]}, {"molecule": "CC(C)(O)C1CC(c2ccc(-c3ccc(N4C[C@H](Cn5ccnn5)OC4=O)cc3F)cn2)=NO1", "note": "(stereo partly drawn) [Example 15, (5R)-3-(3-Fluoro-4-{6-[5-(1-hydroxy-1-methylethyl)-4,5-dihydroisoxazol-3-yl]pyridin-3-yl}phenyl)-5-(1H-1,2,3-triazol-1-ylmethyl)-1,3-oxazolidin-2-one]", "values": [{"measurement": "melting point", "value": 197, "unit": "°C"}]}, {"molecule": "CC(C)(C)OC(=O)C1CC(c2ccc(-c3ccc(N4C[C@H](Cn5ccnn5)OC4=O)cc3F)cn2)=NO1", "note": "(some centres unmarked) [Example 21]", "values": [{"measurement": "melting point", "value": "165 to 168", "unit": "°C"}]}, {"molecule": "O=C(O)C1CC(c2ccc(-c3ccc(N4C[C@H](Cn5ccnn5)OC4=O)cc3F)cn2)=NO1", "note": "(stereo partly drawn) [Example 22, 3-(5-{2-Fluoro-4-[(5R)-2-oxo-5-(1H-1,2,3-triazol-1-ylmethyl)-1,3-oxazolidin-3-yl]phenyl}pyridin-2-yl)-4,5-dihydroisoxazole-5-carboxylic acid]", "values": [{"measurement": "melting point", "value": "190 to 194", "unit": "°C"}]}, {"molecule": "CN(C)C(=O)C1CC(c2ccc(-c3ccc(N4C[C@H](Cn5ccnn5)OC4=O)cc3F)cn2)=NO1", "note": "(stereo partly drawn) [Example 23, 3-(5-{2-Fluoro-4-[(5R)-2-oxo-5-(1H-1,2,3-triazol-1-ylmethyl)-1,3-oxazolidin-3-yl]phenyl}pyridin-2-yl)-N,N-dimethyl-4,5-dihydroisoxazole-5-carboxamide]", "values": [{"measurement": "melting point", "value": "180 to 190", "unit": "°C"}]}, {"molecule": "CNC(=O)C1CC(c2ccc(-c3ccc(N4C[C@H](Cn5ccnn5)OC4=O)cc3F)cn2)=NO1", "note": "(stereo partly drawn) [Example 24, 3-(5-{2-Fluoro-4-[(5R)-2-oxo-5-(1H-1,2,3-triazol-1-ylmethyl)-1,3-oxazolidin-3-yl]phenyl}pyridin-2-yl)-N-methyl-4,5-dihydroisoxazole-5-carboxamide]", "values": [{"measurement": "melting point", "value": "185 to 195", "unit": "°C"}]}, {"molecule": "O=C1O[C@@H](Cn2ccnn2)CN1c1ccc(-c2ccc(C3=NOC(CS(=O)(=O)CCO)C3)nc2)c(F)c1", "note": "(stereo partly drawn) [Example 25, (5R)-3-{3-Fluoro-4-[6-(5-{[(2-hydroxyethyl)sulfonyl]methyl}-4,5-dihydroisoxazol-3-yl)pyridin-3-yl]phenyl}-5-(1H-1,2,3-triazol-1-ylmethyl)-1,3-oxazolidin-2-one]", "values": [{"measurement": "melting point", "value": 210, "unit": "°C"}]}, {"molecule": "O=C1O[C@@H](Cn2ccnn2)CN1c1ccc(-c2ccc(C3=NOC(C4(O)CCCC4)C3)nc2)c(F)c1", "note": "(stereo partly drawn) [Example 28, (5R)-3-(3-Fluoro-4-{6-[5-(1-hydroxycyclopentyl)-4,5-dihydroisoxazol-3-yl]pyridin-3-yl}phenyl)-5-(1H-1,2,3-triazol-1-ylmethyl)-1,3-oxazolidin-2-one]", "values": [{"measurement": "melting point", "value": 225, "unit": "°C"}]}, {"molecule": "O=C1O[C@@H](Cn2ccnn2)CN1c1ccc(-c2ccc(C3=NOC(CNCCc4ccncc4)C3)nc2)c(F)c1", "note": "(stereo partly drawn) [Example 33, (5R)-3-{3-Fluoro-4-[6-(5-{[(2-pyridin-4-ylethyl)amino]methyl}-4,5-dihydroisoxazol-3-yl)pyridin-3-yl]phenyl}-5-(1H-1,2,3-triazol-1-ylmethyl)-1,3-oxazolidin-2-one]", "values": [{"measurement": "melting point", "value": 181, "unit": "°C"}]}, {"molecule": "CN1CCC(O)(C2CC(c3ccc(-c4ccc(N5C[C@H](Cn6ccnn6)OC5=O)cc4F)cn3)=NO2)CC1", "note": "(stereo partly drawn) [Example 34, (5R)-3-(3-Fluoro-4-{6-[5-(4-hydroxy-1-methylpiperidin-4-yl)-4,5-dihydroisoxazol-3-yl]pyridin-3-yl}phenyl)-5-(1H-1,2,3-triazol-1-ylmethyl)-1,3-oxazolidin-2-one]", "values": [{"measurement": "melting point", "value": 73, "unit": "°C"}]}, {"molecule": "O=C1O[C@@H](Cn2ccnn2)CN1c1ccc(-c2ccc(C3=NOC(CS(=O)(=O)CCc4ccncc4)C3)nc2)c(F)c1", "note": "(stereo partly drawn) [Example 35, (5R)-3-{3-Fluoro-4-[6-(5-{[(2-pyridin-4-ylethyl)sulfonyl]methyl}-4,5-dihydroisoxazol-3-yl)pyridin-3-yl]phenyl}-5-(1H-1,2,3-triazol-1-ylmethyl)-1,3-oxazolidin-2-one]", "values": [{"measurement": "melting point", "value": 195, "unit": "°C"}]}, {"molecule": "CCN(CC)CCC(=O)OC[C@@H]1CC(c2ccc(-c3ccc(N4C[C@H](Cn5ccnn5)OC4=O)cc3F)cn2)=NO1", "note": "[Example 43, [(5S)-3-(5-{2-Fluoro-4-[(5R)-2-oxo-5-(1H-1,2,3-triazol-1-ylmethyl)-1,3-oxazolidin-3-yl]phenyl}pyridin-2-yl)-4,5-dihydroisoxazol-5-yl]methyl N,N-diethyl-β-alaninate]", "values": [{"measurement": "melting point", "value": 167, "unit": "°C"}]}, {"molecule": "O=C1O[C@@H](Cn2ccnn2)CN1c1ccc(-c2ccc(C3=NO[C@H]([C@H](O)CO)C3)nc2)c(F)c1", "note": "[Example 51, (5R)-3-[4-(6-{(5S)-5-[(1R)-1,2-Dihydroxyethyl]-4,5-dihydroisoxazol-3-yl}pyridin-3-yl)-3-fluorophenyl]-5-(1H-1,2,3-triazol-1-ylmethyl)-1,3-oxazolidin-2-one]", "values": [{"measurement": "Ki", "setting": "MAO-A", "value": "~60", "unit": "µM"}]}, {"molecule": "O=C1O[C@@H](Cn2ccnn2)CN1c1ccc(-c2ccc(C3=NO[C@@H]([C@H](O)CO)C3)nc2)c(F)c1", "note": "[Example 52, (5R)-3-[4-(6-{(5R)-5-[(1R)-1,2-Dihydroxyethyl]-4,5-dihydroisoxazol-3-yl}pyridin-3-yl)-3-fluorophenyl]-5-(1H-1,2,3-triazol-ylmethyl)-1,3-oxazolidin-2-one]", "values": [{"measurement": "Ki", "setting": "MAO-A", "value": "~35", "unit": "µM"}]}, {"molecule": "O=C1O[C@@H](Cn2ccnn2)CN1c1ccc(-c2ccc(C3=NO[C@H]([C@@H](O)CO)C3)nc2)c(F)c1", "note": "[Example 53, (5R)-3-[4-(6-{(5S)-[(1S)-1,2-Dihydroxyethyl]-4,5-dihydroisoxazol-3-yl}pyridin-3-yl)-3-fluorophenyl]-5-(1H-1,2,3-triazol-1-ylmethyl)-1,3-oxazolidin-2-one]", "values": [{"measurement": "Ki", "setting": "MAO-A", "value": 60, "unit": "µM"}]}, {"molecule": "O=C1O[C@@H](Cn2ccnn2)CN1c1ccc(-c2ccc(C3=NO[C@@H]([C@@H](O)CO)C3)nc2)c(F)c1", "note": "[Example 54, (5R)-3-[4-(6-{(5R)S-5-[(1S)-1,2-Dihydroxyethyl]-4,5-dihydroisoxazol-3-yl}pyridin-3-yl)-3-fluorophenyl]-5-(1H-1,2,3-triazol-1-ylmethyl)-1,3-oxazolidin-2-one]", "values": [{"measurement": "Ki", "setting": "MAO-A", "value": 8, "unit": "µM"}]}, {"molecule": "COCCC(=O)OC[C@@H](O)[C@@H]1CC(c2ccc(-c3ccc(N4C[C@H](Cn5ccnn5)OC4=O)cc3F)cn2)=NO1", "note": "[Example 56, (2R)-2-[(5S)-3-(5-{2-Fluoro-4-[(5R)-2-oxo-5-(1H-1,2,3-triazol-1-ylmethyl)-1,3-oxazolidin-3-yl]phenyl}pyridin-2-yl)-4,5-dihydroisoxazol-5-yl]-2-hydroxyethyl 3-methoxypropanoate]", "values": [{"measurement": "melting point", "value": 130, "unit": "°C"}]}, {"molecule": "O=C(OC[C@@H](O)[C@@H]1CC(c2ccc(-c3ccc(N4C[C@H](Cn5ccnn5)OC4=O)cc3F)cn2)=NO1)c1cccnc1", "note": "[Example 57, (2R)-2-[(5S)-3-(5-{2-Fluoro-4-[(5R)-2-oxo-5-(1H-1,2,3-triazol-1-ylmethyl)-1,3-oxazolidin-3-yl]phenyl}pyridin-2-yl)-4,5-dihydroisoxazol-5-yl]-2-hydroxyethyl nicotinate]", "values": [{"measurement": "melting point", "value": 210, "unit": "°C"}]}, {"molecule": "COCCOC(=O)OC[C@@H](O)[C@@H]1CC(c2ccc(-c3ccc(N4C[C@H](Cn5ccnn5)OC4=O)cc3F)cn2)=NO1", "note": "[Example 58, (2R)-2-[(5S)-3-(5-{2-Fluoro-4-[(5R)-2-oxo-5-(1H-1,2,3-triazol-1-ylmethyl)-1,3-oxazolidin-3-yl]phenyl}pyridin-2-yl)-4,5-dihydroisoxazol-5-yl]-2-hydroxyethyl 2-methoxyethyl carbonate]", "values": [{"measurement": "melting point", "value": 125, "unit": "°C"}]}, {"molecule": "N.N.N.N.O=C1O[C@@H](Cn2ccnn2)CN1c1ccc(-c2ccc(C3=NO[C@H]([C@@H](COP(=O)(O)O)OP(=O)(O)O)C3)nc2)c(F)c1", "note": "[Example 59, Phosphoric acid mono-(1R)-[(5R)-2-(3-{(5S)-[2-fluoro-4-(2-oxo-5-[1,2,3]triazol-1-ylmethyl-oxazolidin-3-yl)-phenyl]-pyridin-2-yl}-4,5-dihydro-isoxazol-5-yl)-2-phosphonooxy-ethyl]ester, tetrakis ammonium salt]", "values": [{"measurement": "melting point", "value": "175 to 180 °C (dec.)"}]}, {"molecule": "O=C1O[C@@H](Cn2ccnn2)CN1c1ccc(-c2ccc(C3=NO[C@H](CSCCO)C3)nc2)c(F)c1", "note": "[Example 60, (5R)-3-{3-Fluoro-4-[6-((5S)-5-{[(2-hydroxyethyl)thio]methyl}-4,5-dihydroisoxazol-3-yl)pyridin-3-yl]phenyl}-5-(1H-1,2,3-triazol-1-ylmethyl)-1,3-oxazolidin-2-one]", "values": [{"measurement": "melting point", "value": 162, "unit": "°C"}]}, {"molecule": "O=C1O[C@@H](Cn2ccnn2)CN1c1ccc(-c2ccc(C3=NO[C@H](COC(F)(F)F)C3)nc2)c(F)c1", "note": "[Example 61]", "values": [{"measurement": "melting point", "value": 185, "unit": "°C"}]}, {"molecule": "O=C1O[C@@H](Cn2ccnn2)CN1c1ccc(-c2ccc(C3=NO[C@H](COCC(F)(F)F)C3)nc2)c(F)c1", "note": "[Example 62]", "values": [{"measurement": "melting point", "value": 199, "unit": "°C"}]}, {"molecule": "COC[C@@H]1CC(c2ccc(-c3ccc(N4C[C@H](Cn5ccnn5)OC4=O)cc3F)cn2)=NO1", "note": "[Example 64, (5R)-3-(3-Fluoro-4-{6-[(5S)-5-(methoxymethyl)-4,5-dihydroisoxazol-3-yl]pyridin-3-yl}phenyl)-5-(1H-1,2,3-triazol-1-ylmethyl)-1,3-oxazolidin-2-one]", "values": [{"measurement": "melting point", "value": 172, "unit": "°C"}]}]}
